The target in one test is T1, Human M3 receptor (Homo sapiens, UniProt P20309).
T1 construct: purchased Perkin Elmer
Put plainly: M3 Receptor Radioligand Binding Assay. Particulars: human M3 receptor membranes, [3H]-N-methyl scopolamine; read-out: M3 binding affinity (Ki class). On the procedure:
Biological Characterization M3 Receptor Radioligand Binding Assay
The assay was carried out in 96-well polypropylene plates in a volume of 250 ul. […] The final assay concentration of DMSO was 0.5% (v/v). The plates were sealed and incubated for 2 h at room temperature on an orbital shaker (slow speed). Membranes were harvested onto 96-well unifilter GF/C filter plates pre-treated with 0.5% polyethyleneimine (v/v), using a filter manifold, washed four times with 200 ul of assay buffer. The plates were dried before addition of 50 μl of microscint-0, sealed then read in a Trilux Microbeta scintillation counter.

Another test has as its target T2, Human β2 adrenoceptor (Homo sapiens, UniProt P07550).
T2 construct: purchased Perkin Elmer
Put plainly: β2 Adrenoceptor Radioligand Binding Assay. Particulars: human β2 adrenoceptor membranes, 125-I Cyanopindolol; read-out: B2 binding affinity (Ki class). The procedure: β2 Adrenoceptor Radioligand Binding Assay
The assay was carried out in 96-well polypropylene plates in a volume of 200 ul. The assay buffer used was 25 mM HEPES, 0.5% BSA (w/v), 1 mM EDTA, 0.02% ascorbic acid (v/v), (pH 7.4). The final assay concentration of DMSO was 0.5% (v/v). The plates were sealed and incubated for 1 h at room temperature on an orbital shaker (slow speed). Membranes were harvested onto 96-well unifilter GF/C filter plates pre-treated with 0.5% polyethyleneimine (v/v), using a filter manifold, washed six times with 200 ul of wash buffer containing 10 mM HEPES and 500 mM NaCl. The plates were dried before addition of 50 μl of microscint-0, sealed then read in a Trilux Microbeta scintillation counter. IC50 values are determined from competition curves using a non-linear curve fitting program. Ki values were calculated from IC50 values by the Cheng and Prusoff equation.

Some results are limits rather than exact numbers.

T1 sequence (P20309 whole entry): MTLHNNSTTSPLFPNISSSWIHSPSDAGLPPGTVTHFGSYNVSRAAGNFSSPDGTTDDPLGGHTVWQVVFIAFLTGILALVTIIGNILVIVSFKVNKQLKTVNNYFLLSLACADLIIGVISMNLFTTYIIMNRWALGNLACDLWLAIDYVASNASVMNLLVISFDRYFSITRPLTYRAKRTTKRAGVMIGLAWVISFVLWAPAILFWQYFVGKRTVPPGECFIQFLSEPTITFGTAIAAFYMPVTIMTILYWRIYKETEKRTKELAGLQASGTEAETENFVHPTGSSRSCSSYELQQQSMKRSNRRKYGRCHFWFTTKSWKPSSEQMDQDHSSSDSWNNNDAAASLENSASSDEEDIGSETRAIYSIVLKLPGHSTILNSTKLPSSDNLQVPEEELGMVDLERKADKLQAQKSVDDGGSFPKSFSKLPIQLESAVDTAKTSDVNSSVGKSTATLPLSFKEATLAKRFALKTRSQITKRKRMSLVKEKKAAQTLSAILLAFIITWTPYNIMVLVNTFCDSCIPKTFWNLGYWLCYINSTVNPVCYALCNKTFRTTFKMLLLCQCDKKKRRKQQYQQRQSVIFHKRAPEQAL
T2 sequence (P07550 whole entry): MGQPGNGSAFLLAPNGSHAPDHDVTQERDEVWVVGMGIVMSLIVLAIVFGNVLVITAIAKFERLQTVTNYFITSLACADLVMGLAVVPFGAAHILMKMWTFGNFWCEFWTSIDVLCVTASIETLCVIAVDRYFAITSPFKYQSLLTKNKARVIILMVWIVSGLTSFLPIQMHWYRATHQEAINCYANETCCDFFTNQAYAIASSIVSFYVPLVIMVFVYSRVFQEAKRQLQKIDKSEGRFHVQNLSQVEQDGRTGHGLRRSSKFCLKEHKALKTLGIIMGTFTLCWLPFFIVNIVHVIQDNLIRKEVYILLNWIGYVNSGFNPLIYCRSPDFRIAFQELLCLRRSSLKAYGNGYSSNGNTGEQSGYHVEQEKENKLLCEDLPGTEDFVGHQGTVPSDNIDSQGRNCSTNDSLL

For `O=C(c1ccc(OCCCCCNC[C@H](O)c2ccc(O)c3[nH]c(=O)ccc23)cc1)N1CCC(C(=O)O[C@H]2CN3CCC2CC3)(c2ccccc2)CC1` [Compound 1, (R)-Quinuclidin-3-yl 1-(4-((5-(((R)-2-hydroxy-2-(8-hydroxy-2-oxo-1,2-dihydroquinolin-5-yl)ethyl)amino)pentyl)oxy)benzoyl)-4-phenylpiperidine-4-carboxylate], the Ki on Human M3 receptor and on Human β2 adrenoceptor was below 1 nM throughout.
For `O=C(c1ccc(OCCCCCNC[C@H](O)c2ccc(O)c3[nH]c(=O)ccc23)cc1)N1CC(C(=O)O[C@H]2CN3CCC2CC3)(c2ccccc2)C1` [Compound 1A, (R)-Quinuclidin-3-yl 1-(4-((5-(((R)-2-hydroxy-2-(8-hydroxy-2-oxo-1,2-dihydroquinolin-5-yl)ethyl)amino)pentyl)oxy)benzoyl)-3-phenylazetidine-3-carboxylate], the Ki (commonly the equilibrium dissociation constant of an inhibitor or competing ligand from its target) on Human M3 receptor is 1 to 10 nM; on Human β2 adrenoceptor it was below 1 nM.
For the compound `O=C(c1cccc(OCCCCCNC[C@H](O)c2ccc(O)c3[nH]c(=O)ccc23)c1)N1CCC(C(=O)O[C@H]2CN3CCC2CC3)(c2ccccc2)CC1` [Compound 2, (R)-Quinuclidin-3-yl 1-(3-((5-(((R)-2-hydroxy-2-(8-hydroxy-2-oxo-1,2-dihydroquinolin-5-yl)ethyl)amino)pentyl)oxy)benzoyl)-4-phenylpiperidine-4-carboxylate], the Ki at Human M3 receptor is 1 to 10 nM; at Human β2 adrenoceptor it was below 1 nM.
For the compound `O=C(c1ccc(OCCCCCCNC[C@H](O)c2ccc(O)c3[nH]c(=O)ccc23)cc1)N1CC(C(=O)O[C@H]2CN3CCC2CC3)(c2ccccc2)C1` [Compound 2A, (R)-Quinuclidin-3-yl 1-(4-((6-(((R)-2-hydroxy-2-(8-hydroxy-2-oxo-1,2-dihydroquinolin-5-yl)ethyl)amino)hexyl)oxy)benzoyl)-3-phenylazetidine-3-carboxylate], the Ki on Human M3 receptor and at Human β2 adrenoceptor was below 1 nM in each case.
Take `COc1cc(C(=O)N2CCC(C(=O)O[C@H]3CN4CCC3CC4)(c3ccccc3)CC2)ccc1OCCCCCNC[C@H](O)c1ccc(O)c2[nH]c(=O)ccc12` [Compound 3, (R)-Quinuclidin-3-yl 1-(4-((5-(((R)-2-hydroxy-2-(8-hydroxy-2-oxo-1,2-dihydroquinolin-5-yl)ethyl)amino)pentyl)oxy)-3-methoxybenzoyl)-4-phenylpiperidine-4-carboxylate]: the Ki on Human M3 receptor was 1 to 10 nM; at Human β2 adrenoceptor it was below 1 nM.
With `O=C(c1ccc(OCCCCCCNC[C@H](O)c2ccc(O)c3[nH]c(=O)ccc23)cc1)N1CC(C(=O)O[C@H]2CN3CCC2CC3)(c2ccc(F)cc2)C1` [Compound 3A, (R)-Quinuclidin-3-yl 3-(4-fluorophenyl)-1-(4-((6-(((R)-2-hydroxy-2-(8-hydroxy-2-oxo-1,2-dihydroquinolin-5-yl)ethyl)amino)hexyl)oxy)benzoyl)azetidine-3-carboxylate], the values for the inhibition constant Ki on Human M3 receptor and at Human β2 adrenoceptor were 1 to 10 nM and below 1 nM, respectively.
Turning to `O=C(c1ccc(OCCCCCNC[C@H](O)c2ccc(O)c3[nH]c(=O)ccc23)c(Cl)c1)N1CCC(C(=O)O[C@H]2CN3CCC2CC3)(c2ccccc2)CC1` [Compound 4, (R)-Quinuclidin-3-yl 1-(4-((5-(((R)-2-hydroxy-2-(8-hydroxy-2-oxo-1,2-dihydroquinolin-5-yl)ethyl)amino)pentyl)oxy)-3-chlorobenzoyl)-4-phenylpiperidine-4-carboxylate], the Ki on Human M3 receptor was 1 to 10 nM; on Human β2 adrenoceptor, below 1 nM.
On to `O=C(c1cccc(OCCCCCNC[C@H](O)c2ccc(O)c3[nH]c(=O)ccc23)c1)N1CC(C(=O)O[C@H]2CN3CCC2CC3)(c2ccccc2)C1` [Compound 4A, (R)-Quinuclidin-3-yl 1-(3-((5-(((R)-2-hydroxy-2-(8-hydroxy-2-oxo-1,2-dihydroquinolin-5-yl)ethyl)amino)pentyl)oxy)benzoyl)-3-phenylazetidine-3-carboxylate], for which the results for the Ki on Human M3 receptor and at Human β2 adrenoceptor were 1 to 10 nM and below 1 nM, respectively.
On the same counts, the results for `O=C(c1cc(Cl)c(OCCCCCNC[C@H](O)c2ccc(O)c3[nH]c(=O)ccc23)c(Cl)c1)N1CCC(C(=O)O[C@H]2CN3CCC2CC3)(c2ccccc2)CC1` [Compound 5, (R)-Quinuclidin-3-yl 1-(3,5-dichloro-4-((5-(((R)-2-hydroxy-2-(8-hydroxy-2-oxo-1,2-dihydroquinolin-5-yl)ethyl)amino)pentyl)oxy)benzoyl)-4-phenylpiperidine-4-carboxylate] are 1 to 10 nM and 1 to 10 nM.
In the case of `O=C(CCc1ccc(OCCCCCNC[C@H](O)c2ccc(O)c3[nH]c(=O)ccc23)cc1)N1CC(C(=O)O[C@H]2CN3CCC2CC3)(c2ccccc2)C1` [Compound 5A, (R)-Quinuclidin-3-yl 1-(3-(4-((5-(((R)-2-hydroxy-2-(8-hydroxy-2-oxo-1,2-dihydroquinolin-5-yl)ethyl)amino)pentyl)oxy)phenyl)propanoyl)-3-phenylazetidine-3-carboxylate], the results for the Ki at Human M3 receptor and on Human β2 adrenoceptor were 1 to 10 nM and below 1 nM, respectively.
The like results for `O=C(c1ccc(OCCCCCNC[C@H](O)c2ccc(O)c3[nH]c(=O)ccc23)c(-c2ccsc2)c1)N1CCC(C(=O)O[C@H]2CN3CCC2CC3)(c2ccccc2)CC1` [Compound 6, (R)-Quinuclidin-3-yl 1-(4-((5-(((R)-2-hydroxy-2-(8-hydroxy-2-oxo-1,2-dihydroquinolin-5-yl)ethyl)amino)pentyl)oxy)-3-(thiophen-3-yl)benzoyl)-4-phenylpiperidine-4-carboxylate] were, in that order, above 10 nM and below 1 nM.
On the same counts, the results for `O=C(Cc1ccc(OCCCCCNC[C@H](O)c2ccc(O)c3[nH]c(=O)ccc23)cc1)N1CC(C(=O)O[C@H]2CN3CCC2CC3)(c2ccccc2)C1` [Compound 6A, (R)-Quinuclidin-3-yl 1-(2-(4-((5-(((R)-2-hydroxy-2-(8-hydroxy-2-oxo-1,2-dihydroquinolin-5-yl)ethyl)amino)pentyl)oxy)phenyl)acetyl)-3-phenylazetidine-3-carboxylate] are 1 to 10 nM and below 1 nM.
On the same counts, the results for `O=C(CCc1ccc(OCCCCCNC[C@H](O)c2ccc(O)c3[nH]c(=O)ccc23)cc1)N1CCC(C(=O)O[C@H]2CN3CCC2CC3)(c2ccccc2)CC1` [Compound 7, (R)-Quinuclidin-3-yl 1-(3-(4-((5-(((R)-2-hydroxy-2-(8-hydroxy-2-oxo-1,2-dihydroquinolin-5-yl)ethyl)amino)pentyl)oxy)phenyl)propanoyl)-4-phenylpiperidine-4-carboxylate] are below 1 nM and below 1 nM.
Consider `O=C(c1ccc(OCc2cccc(OCCCCNC[C@H](O)c3ccc(O)c4[nH]c(=O)ccc34)c2)cc1)N1CC(C(=O)O[C@H]2CN3CCC2CC3)(c2ccccc2)C1` [Compound 7A, (R)-Quinuclidin-3-yl 1-(4-((3-(4-(((R)-2-hydroxy-2-(8-hydroxy-2-oxo-1,2-dihydroquinolin-5-yl)ethyl)amino)butoxy)benzyl)oxy)benzoyl)-3-phenylazetidine-3-carboxylate], for which the Ki at Human M3 receptor is 1 to 10 nM; on Human β2 adrenoceptor, below 1 nM.
As to `O=C(Cc1ccc(OCCCCCNC[C@H](O)c2ccc(O)c3[nH]c(=O)ccc23)cc1)N1CCC(C(=O)O[C@H]2CN3CCC2CC3)(c2ccccc2)CC1` [Compound 8, (R)-Quinuclidin-3-yl 1-(2-(4-((5-(((R)-2-hydroxy-2-(8-hydroxy-2-oxo-1,2-dihydroquinolin-5-yl)ethyl)amino)pentyl)oxy)phenyl)acetyl)-4-phenylpiperidine-4-carboxylate], the Ki on Human M3 receptor and at Human β2 adrenoceptor was below 1 nM throughout.
On to `O=C(c1ccc(OCc2ccc(CNC[C@H](O)c3ccc(O)c4[nH]c(=O)ccc34)cc2)cc1)N1CC(C(=O)O[C@H]2CN3CCC2CC3)(c2ccccc2)C1` [Compound 8A, (R)-Quinuclidin-3-yl 1-(4-((4-((((R)-2-hydroxy-2-(8-hydroxy-2-oxo-1,2-dihydroquinolin-5-yl)ethyl)amino)methyl)benzyl)oxy)benzoyl)-3-phenylazetidine-3-carboxylate], for which the Ki at Human M3 receptor and on Human β2 adrenoceptor was below 1 nM in each case.
`O=C(c1ccc(OCCCCCNC[C@H](O)c2ccc(O)c3[nH]c(=O)ccc23)c(F)c1)N1CCC(C(=O)O[C@H]2CN3CCC2CC3)(c2ccccc2)CC1` [Compound 9, (R)-Quinuclidin-3-yl 1-(3-fluoro-4-((5-(((R)-2-hydroxy-2-(8-hydroxy-2-oxo-1,2-dihydroquinolin-5-yl)ethyl)amino)pentyl)oxy)benzoyl)-4-phenylpiperidine-4-carboxylate]: the inhibitory constant (Ki) at Human M3 receptor was 1 to 10 nM; on Human β2 adrenoceptor it was above 10 nM.
On the same counts, the results for `O=C(NCc1ccc(CNC[C@H](O)c2ccc(O)c3[nH]c(=O)ccc23)cc1)c1ccc(C(=O)N2CC(C(=O)O[C@H]3CN4CCC3CC4)(c3ccccc3)C2)cc1` [Compound 9A, (R)-Quinuclidin-3-yl 1-(4-((4-((((R)-2-hydroxy-2-(8-hydroxy-2-oxo-1,2-dihydroquinolin-5-yl)ethyl)amino)methyl)benzyl)carbamoyl)benzoyl)-3-phenylazetidine-3-carboxylate] are below 1 nM and 1 to 10 nM.

The values above are taken from US9662323B2, “Compounds having muscarinic receptor antagonist and beta2 adrenergic receptor agonist activity” (CHIESI FARMACEUTICI S.p.A., priority 2015, dated 2017).
